Assay results published in US20230345990A1, “PROCESS FOR PRODUCTION OF CONCENTRATES OF CHELATED MINERALS WITH SOYBEAN AMINO ACIDS AND/OR SOYBEAM PROTEIN, AND RELATED PRODUCT” (Yessinergy Holding S.A., priority 2021, published 2023).

Columns and labels:
Format in all cases: in vivo, broilers (Cobb 500 male chicks)
[1] = Broiler performance (feed intake, weight gain, feed conversion) with different Zn sources
Description: (§1) An experiment was developed with the purpose of investigating the effect of providing six different sources of Zn, at two levels of supplementation, in diets based on corn, soybean bran and phytase, with respect to performance and balance of Zn in broilers.
The experimental feeds used for the initial phase (1 to 21 days) and for growth (21 to 42 days) were formulated based on corn, soybean bran and phytase, following the recommendations proposed by Rostagno et al. (2017) for each phase.
Feed and water were freely provided throughout an experimental period from 1 to 42 days. The shed room temperature was maintained using 250 Watt infrared lamps and curtains on the sides of the shed. Light was provided for 22 hours/day in a scheme of 12 hours of natural light and 10 hours of artificial light. 2,400 lineage Cobb 500 male chicks were used, distributed in a randomized block design housed on the floor in a shed divided into 120 boxes of 1.0×2.0 meters (3,3×6.6 ft), with reused wood shavings bed, for the purpose of increasing the health challenge of birds. […]
The parameters of performance evaluated were feed intake (FI, kg/bird), weight gain (WG, kg/bird), feed conversion (FC, kg/kg).

[2] = Foot Pad Lesions (FPL) score in broilers at 42 days
Method: as §1
(§2) Feed and water were freely provided throughout an experimental period from 1 to 42 days. The shed room temperature was maintained using 250 Watt infrared lamps and curtains on the sides of the shed. Light was provided for 22 hours/day in a scheme of 12 hours of natural light and 10 hours of artificial light. 2,400 lineage Cobb 500 male chicks were used, distributed in a randomized block design housed on the floor in a shed divided into 120 boxes of 1.0×2.0 meters (3,3×6.6 ft), with reused wood shavings bed, for the purpose of increasing the health challenge of birds.
(§3) The birds were randomly distributed in a 6×2 factorial arrangement with six different sources of Zn and two levels of Zn (40 and 80 mg/kg), totaling 12 treatments with 10 repetitions and 20 animals per box (this being considered one experimental unit).
At 42 days of age, during individual weighing of the birds, the quality of the foot pad was determined, using the Foot Pad Lesions (FPL) score according to Berg (1998) and Van Ham et al. (2019), wherein both foot pads of all animals in the experiment were evaluated. Score 0 was given for cushions without any injuries, 1 for discolored cushions but without deep injuries, and score 2 for cushions with deep injuries (ulcers, blisters, etc.). As this is a subjective fact, only one person was responsible for the assessment of the foot pad score. The Injury Score for each experimental unit was calculated according to the following equation, with FPL index varying from 0 to 200 (all birds having score 2).

[3] = Zn balance in broilers (Zn in excreta, retained Zn)
Method: as §1, §2, §3
At 33 days of age, excreta were collected for 24 hours by placing a plastic canvas on the floor of each box to determine Zn content (mg/kg of dry matter in excreta), retained Zn (consumed mg minus excreted mg), and Zn balance (retained Zn/consumed Zn x 100).

[4] = level of zinc 40 mg/kg, 1 to 42 days
[5] = level of zinc 80 mg/kg, 1 to 42 days

O=S(=O)([O-])[O-].[Zn+2] [SF, ZnSO4]
Feed Conversion ([1]; level of zinc 40 mg/kg): 1.52 kg consumption/kg | Feed Consumption [1, 4]: 4.81 kg/bird | Weight Gain [1, 4]: 3.17 kg/bird | Feed Conversion ([1]; level of zinc 80 mg/kg): 1.51 kg consumption/kg | Feed Consumption [1, 5]: 4.73 kg/bird | Weight Gain [1, 5]: 3.14 kg/bird | Feed Conversion ([1]; level of zinc 100 mg/kg, trend based on results from 40 to 80 ppm of Zn): 1.52 kg consumption/kg | Feed Conversion ([1]; mean): 1.51 ab kg consumption/kg | Feed Consumption ([1]; mean of 40 and 80 mg/kg): 4.77 kg/bird | Weight Gain ([1]; mean of 40 and 80 mg/kg): 3.16 kg/bird | Foot pad lesions % (42 days) ([2]; level of zinc 40 mg/kg): 18.98% | Foot pad lesions % (42 days) ([2]; level of zinc 80 mg/kg): 25.09% | Foot pad lesions % (42 days) ([2]; mean of 40 and 80 mg/kg): 22.0% | Percentage of Retained Zinc ([3]; level of zinc 40 mg/kg): 19.52% | Zinc Excretion ([3]; level of zinc 40 mg/kg, excreta collected 24 h): 10.26 mg/bird | Percentage of Retained Zinc ([3]; level of zinc 80 mg/kg): 47.23% | Zinc Excretion ([3]; level of zinc 80 mg/kg, excreta collected 24 h): 9.17 mg/bird | Percentage of Retained Zinc ([3]; mean of 40 and 80 mg/kg): 33.4% | Zinc Excretion ([3]; mean of 40 and 80 mg/kg): 9.7 mg/bird
